# Values of other authors as cited in Sander's compilation of Henry's law constants (doi:10.1021/cr60306a003).
# Assay: Henry solubility constant Hcp at 298.15 K (mol/(m3 Pa))
# Conditions: reference: Wilhelm et al. (1977); cited value
row,SMILES,Henry solubility constant Hcp
1,"C=CC=C [1,3-butadiene]",0.00014
2,C=CCC [1-butene],0.00013
3,C#CCC [1-butyne],0.00075
4,CC(C)C [2-methylpropane],8e-06
5,C=C(C)C [2-methylpropene],5.6e-05
6,C#CC=C [3-buten-1-yne],0.00037
7,[Ar] [argon],1.4e-05
8,CBr [bromomethane],0.0016
9,CCCC [butane],1.2e-05
10,O=C=O [carbon dioxide],0.00033
11,[C-]#[O+] [carbon monoxide],9.4e-06
12,O=C=S [carbon oxide sulfide],0.00021
13,[O][Cl+][O-] [chlorine dioxide],0.01
14,FC(F)Cl [chlorodifluoromethane],0.00034
15,C=CCl [chloroethene],0.00045
16,FCCl [chlorofluoromethane],0.0015
17,FC(F)(F)C(F)(F)Cl [chloropentafluoroethane],3.4e-06
18,FC(F)(F)Cl [chlorotrifluoromethane],9.3e-06
19,C1CC1 [cyclopropane],0.00011
20,FC(F)(Cl)Cl [dichlorodifluoromethane],2.1e-05
21,CNC [dimethylamine],0.3
22,CC(C)(C)C [dimethylpropane],5.9e-06
23,[N-]=[N+]=O [dinitrogen monoxide],0.00024

row,SMILES,Henry solubility constant Hcp
1,FN(F)N(F)F [dinitrogen tetrafluoride],8.4e-06
2,CCN [ethanamine],0.35
3,C=C [ethene],4.7e-05
4,C#C [ethyne],0.00041
5,CF [fluoromethane],0.00058
6,[He] [helium],3.8e-06
7,FC(F)=C(F)C(F)(F)F [hexafluoropropene],2.9e-06
8,[HH] [hydrogen],7.7e-06
9,[Kr] [krypton],2.5e-05
10,CN [methanamine],0.35
11,[Ne] [neon],4.4e-06
12,FN(F)F [nitrogen trifluoride],7.9e-06
13,O=O [oxygen],1.3e-05
14,O=[O+][O-] [ozone],0.00013
15,P [phosphorus trihydride],8.1e-05
16,C=CC [propene],7.3e-05
17,[Rn] [radon],9.2e-05
18,O=S=O [sulfur dioxide],0.014
19,FS(F)(F)(F)(F)F [sulfur hexafluoride],2.4e-06
20,FC(F)=C(F)F [tetrafluoroethene],1.6e-05
21,FC(F)(F)F [tetrafluoromethane],2.1e-06
22,FC(F)F [trifluoromethane],0.00013
23,[Xe] [xenon],4.2e-05
